Reference: patent US11311523B2, “Pyridinone compound and use thereof” (KYUSHU UNIVERSITY, NATIONAL UNIVERSITY CORPORATION, priority 2015, dated 2022)

What was measured:
DHR-2 domain of DOCK1 = biological target: T1, DHR-2 domain of DOCK1 (Homo sapiens, UniProt Q14185); experiment: in vitro GEF assay (Bodipy-FL-GTP loading of Rac); assay type: biochemical; settings: from IC50 values for DOCK1, DOCK2, DOCK5
T1 construct: Polypeptide fragments that correspond to the DHR-2 domain of DOCK1, DOCK2, or DOCK5; Histidine-SUMO (N); made in house; host or cells: E. coli Arctic express (DE3)
T1 sequence (Q14185 1207-1617 limits assumed): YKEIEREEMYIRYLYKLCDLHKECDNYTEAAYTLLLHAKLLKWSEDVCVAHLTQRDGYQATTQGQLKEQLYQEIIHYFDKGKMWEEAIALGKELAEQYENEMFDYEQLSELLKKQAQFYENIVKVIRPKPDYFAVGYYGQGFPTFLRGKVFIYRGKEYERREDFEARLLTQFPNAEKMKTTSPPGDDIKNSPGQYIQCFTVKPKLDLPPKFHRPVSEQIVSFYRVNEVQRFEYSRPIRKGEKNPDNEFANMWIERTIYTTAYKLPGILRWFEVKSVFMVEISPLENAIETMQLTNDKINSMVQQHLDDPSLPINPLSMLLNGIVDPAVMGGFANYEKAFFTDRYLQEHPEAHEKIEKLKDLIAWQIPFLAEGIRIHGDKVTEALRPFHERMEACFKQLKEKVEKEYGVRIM
Excerpt: Pharmacological Test 1 (In Vitro GEF Assay)
DOCK1, DOCK2, and DOCK5, which are DOCK-A subfamily members, catalyze the GTP-GDP exchange reaction for Rac via the DHR-2 domain to activate Rac.
The in vitro GEF assay referred to in this specification used a labeled GTP (Bodipy-FL-GTP, Invitrogen), whose fluorescence intensity increases when bound to Rac.
Polypeptide fragments that correspond to the DHR-2 domain of DOCK1, DOCK2, or DOCK5 were expressed in E. coli Arctic express (DE3) cells as N-terminal Histidine-SUMO tag-fused recombinant proteins and purified by affinity column chromatography on nickel-NTA columns.
Rac was expressed in E. coli BL21 (DE3) cells as an N-terminal GST tag-fused recombinant protein and purified by affinity column chromatography on glutathione-Sepharose columns.
Subsequently, a reaction solution A containing 20 mM of MES-NaOH, 150 mM of NaCl, 10 mM of MgCl2, and 20 μM of GDP, and having an adjusted pH of 7.0 was incubated at room temperature for 30 minutes while being protected from light in the presence of each of the polypeptide fragments (DHR-2 domains) prepared above and each pyridinone compound or CPYPP dissolved at a predetermined concentration in DMSO or DMSO alone (control) to thus prepare GEF pretreated products. In all of the samples, the final DMSO concentration was adjusted to 3%.
Thereafter, 15 μM of Rac prepared above was added to the reaction solution A and directly allowed to stand on ice for 30 minutes to form a GDP-Rac complex.
Bodipy-FL-GTP was added to 100 μL of the reaction solution A containing the thus prepared GDP-Rac complex to a concentration of 3.6 μM, followed by equilibration at 30° C. for 2 minutes. After equilibration, 50 μL of the pretreated GEF was added for reaction at 30° C.
Changes in fluorescence intensity of Bodipy-FL-GTP were monitored during the reaction using an XS-N (Molecular Devices) or an Enspire spectrofluorometer (Perkin Elmer) (excitation wavelength: 488 nm, emission wavelength: 514 nm). The measured values were corrected so that the fluorescence intensity at the time that the reaction was initiated (0 seconds) was 0.
Then, an approximate curve (hyperbola) was obtained by plotting the calculated correction values on the y axis and the time (t) on the x axis using GraphPad Prism5 (GraphPad software), and the slope at t=0 to 10 seconds was considered to be an initial velocity of guanine nucleotide exchange reaction. The IC50 value was calculated taking the initial reaction velocity of the control, to which only a solvent (DMSO) was added, as 100%.

HT-1080 cells = experiment: inhibition of macropinocytosis (TMR-dextran uptake); assay type: cell-based, human
Procedure: Pharmacological Test 5 (Experiment of Inhibition of Macropinocytosis of Cancer Cells)
Macropinocytosis is a phenomenon in which cells take up various substances together with extracellular fluid while extending cellular membranes. Remodeling of actin cytoskeleton through Rac activity is known to be important.
One hundred and fifty microliters of 4×10^4 3LL cells or HT-1080 cells were seeded on the glass portion of fibronectin-coated glass-bottom culture dishes. After 16-hour culture at 37° C., the medium was changed to DMEM (serum free) and cultured for 24 hours to allow the cells to be serum-starved. Subsequently, the medium was changed to 2 mL of serum-free medium containing DMSO alone or DMSO in which each pyridinone compound was dissolved, followed by pretreatment for 1 hour. The final concentration of DMSO was adjusted to 0.2%.
The cells were added to 180 μL of medium with TMR-dextran (final concentration: 500 μg/mL)-containing DMEM (with 10% FBS) containing DMSO alone or DMSO in which a predetermined concentration of each pyridinone compound was dissolved, as in the case above, followed by incubation at 37° C. for 1 hour. Thereafter, the cells were fixed by 60-minute incubation at room temperature in a 4% paraformaldehyde solution. […] The macropinocytosis activity was measured based on the number of TMR-dextran spots per cell. […]

Row | Structure (SMILES) | selectivity of GEF inhibition to DOCK1 versus DOCK2 and DOCK5 (DHR-2 domain of DOCK1) | inhibition of macropinocytosis (HT-1080 cells)
1 | O=C(Cn1cc(S(=O)(=O)N2CCCC2)ccc1=O)c1ccc(-c2ccc3ccccc3c2)cc1 [TS-28, 1-(2-(4-(naphthalen-2-yl)phenyl)-2-oxoethyl)-5-(pyrrolidin-1-ylsulfonyl)pyridin-2(1H)-one] | high selectivity to DOCK1 | inhibit macropinocytosis in 3LL cells and HT-1080 cells in a concentration-dependent manner
2 | O=C(Cn1cc(S(=O)(=O)N2CCCC2)ccc1=O)c1ccc(-c2cccc(C(F)(F)F)c2)cc1 [TS-45, 1-(2-oxo-2-(3′-(trifluoromethyl)-[1,1′-biphenyl]-4-yl)ethyl)-5-(pyrrolidin-1-ylsulfonyl)pyridin-2(1H)-one] | high selectivity to DOCK1 | inhibit macropinocytosis in 3LL cells and HT-1080 cells in a concentration-dependent manner
